Our source for the IC50 values is ChEMBL document CHEMBL5725750, “Bifunctional compounds and use for reducing uric acid levels” (2018).

Bounds are passed on as bounds.

As a reminder, the IC50 is the point on the concentration scale where inhibition reaches its midpoint. A high value points to weaker potency in that assay.

In the assay the target is Xanthine dehydrogenase/oxidase (Homo sapiens, UniProt P47989). As to the kind of experiment: xanthine oxidase activity: Xanthine oxidase inhibition was determined using a standard fluorescence-based assay for xanthine oxidase activity (McHale A, Grimes H, Coughlan M P: Int J Biochem. 10:317-9, 1979) with minor variations. […] Experiments on test compounds were performed in triplicate in multi-well plates using 10 concentrations of each compound that ranged over a 3-fold dilution.
Xanthine dehydrogenase/oxidase, sequence (P47989 whole entry): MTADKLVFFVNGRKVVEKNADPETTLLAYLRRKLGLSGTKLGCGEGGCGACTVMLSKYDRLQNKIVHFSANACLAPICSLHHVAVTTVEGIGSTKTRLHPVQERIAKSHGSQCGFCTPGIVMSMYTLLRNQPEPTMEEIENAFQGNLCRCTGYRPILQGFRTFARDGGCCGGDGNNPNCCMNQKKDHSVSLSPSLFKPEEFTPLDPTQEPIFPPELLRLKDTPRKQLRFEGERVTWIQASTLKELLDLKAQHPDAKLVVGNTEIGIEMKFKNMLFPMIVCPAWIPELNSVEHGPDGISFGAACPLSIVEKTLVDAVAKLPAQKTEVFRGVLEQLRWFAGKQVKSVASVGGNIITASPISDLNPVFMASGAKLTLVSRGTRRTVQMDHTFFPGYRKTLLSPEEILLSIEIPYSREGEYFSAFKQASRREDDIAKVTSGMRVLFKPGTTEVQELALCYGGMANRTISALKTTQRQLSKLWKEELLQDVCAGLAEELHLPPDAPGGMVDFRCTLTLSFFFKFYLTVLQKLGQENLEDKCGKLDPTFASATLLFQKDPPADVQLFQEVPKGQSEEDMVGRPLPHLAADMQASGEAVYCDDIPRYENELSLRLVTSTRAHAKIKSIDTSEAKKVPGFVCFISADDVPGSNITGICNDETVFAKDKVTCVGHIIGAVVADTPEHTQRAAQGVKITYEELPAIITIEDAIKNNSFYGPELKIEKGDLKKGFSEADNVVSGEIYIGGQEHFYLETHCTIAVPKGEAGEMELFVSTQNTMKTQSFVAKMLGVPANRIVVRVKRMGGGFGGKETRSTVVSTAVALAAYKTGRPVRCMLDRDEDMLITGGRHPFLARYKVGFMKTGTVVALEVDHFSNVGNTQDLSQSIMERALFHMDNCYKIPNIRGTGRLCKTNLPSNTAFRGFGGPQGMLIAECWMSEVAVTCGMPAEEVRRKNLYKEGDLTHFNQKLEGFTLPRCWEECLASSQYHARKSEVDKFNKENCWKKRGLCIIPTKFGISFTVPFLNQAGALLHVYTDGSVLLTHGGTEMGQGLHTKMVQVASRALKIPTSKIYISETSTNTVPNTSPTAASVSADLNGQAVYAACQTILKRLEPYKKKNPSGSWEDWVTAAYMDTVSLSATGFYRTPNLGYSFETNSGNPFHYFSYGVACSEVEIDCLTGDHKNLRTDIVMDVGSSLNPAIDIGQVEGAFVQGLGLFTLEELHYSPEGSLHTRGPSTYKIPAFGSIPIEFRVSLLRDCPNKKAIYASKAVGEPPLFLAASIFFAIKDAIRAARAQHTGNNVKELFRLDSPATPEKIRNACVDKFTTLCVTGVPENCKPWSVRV

Compound `O=C(O)CSc1nnc(Br)n1-c1ccc(C2CC2)c2ccccc12` gave an IC50 of over 300 µM.
